Patent publication US20170151204A1 (priority 2011, published 2017)
Entries after “also recorded” stand apart in the source; their conditions may differ.

How the values were obtained:
human neutrophils [1] = test: TLR mRNA expression by human neutrophils (RT-PCR); type: cell-based; conditions: LTB4 100 nM or 1 μM, two hours
Experimental: Peripheral blood neutrophils or peripheral blood mononuclear cells were isolated from healthy donors and were purified by centrifugation over Ficoll™ separation medium gradient as already described (Larochelle B, Blood. 1998;92:291-299). Human neutrophils (2×10^6) were resuspended in culture medium and stimulated with a placebo solution (0.45% w/v NaCl containing 0.25% w/v dextrose, NS) or LTB4 (100 nM or 1 μM in placebo solution) for two hours. Following stimulation, total RNA was extracted and RT-PCR was performed using specific primers for human TLR2 (FIG. 1) and TLR7-9 (FIG. 3).

human neutrophils [2] = test: TLR2 protein expression on human neutrophils (flow cytometry); type: cell-based; conditions: LTB4 100 nM, 15-120 min, flow cytometry (FIG. 2)
Experimental: In FIG. 2A, cells were left untreated (1) or were stimulated with LTB4 (100 nM) for 15 (2), 30 (3), 60 (4) or 120 min (5). Cells were then fixed in paraformaldehyde and TLR2 expression was assessed by flow cytometry. Background cellular autofluorescence is represented by the dotted line (6).

[3] = test system: mouse embryonic fibroblasts (MEFs); test: IFNβ secretion by wild type mouse embryonic fibroblasts; type: cell-based; conditions: MEFs from wild type mice, LTB4 alone or with Sendai virus (FIG. 36)
IAV-infected MEF = type: cell-based, mouse
[4] = test system: mouse embryogenic fibroblasts (MEF); type: cell-based; conditions: uninfected MEF, 6 hours, NacMDP 0.1, 1 and 10 μg/ml, LTB4 100 nM (FIG. 37)
RIG-I = test: RIG-I-dependent promoter activation assay (luciferase) in BLT1-expressing HEK-293T cells; type: cell-based; conditions: RIG-I-expressing vector
human neutrophils [5] = test: Cy3-CpG-ODN binding assay on human neutrophils (flow cytometry); type: cell-based; conditions: LTB4 pretreatment 60 min, then Cy3-CpG-ODN 2216 for 4 h; with or without inhibitory CpG-ODN (FIG. 4E-F)
Experimental: (§1) In FIG. 4A, cells were left untreated (dotted line) or were stimulated with LTB4 (100 nM) for 15, 30, 60 or 120 min. Background cellular autofluorescence is represented by shaded histogram. Cells were then fixed in paraformaldehyde, permeabilized in methanol, and TLR9 expression was assessed by flow cytometry. In FIG. 4B, cells were pre-treated for 30 min with the high affinity LTB4 receptor antagonist U75302 (10 μM) prior to stimulation with LTB4 for 60 min. Cells were then fixed in paraformaldehyde, permeabilized in methanol, and TLR9 expression was assessed by flow cytometry. In FIGS. 4C-D, cells were stimulated with LTB4 or leukotrienes C4 (LTC4), leukotriene D4 (LTD4), the complement protein C5a or IL-8 for 60 min. Cells were then fixed in paraformaldehyde, permeabilized in methanol, and TLR9 expression was assessed by flow cytometry. In FIG. 4E, neutrophils were pretreated with LTB4 for 60 min. Following this pretreatment, neutrophils were incubated in the presence of CpG-ODN 2216 sequence (5′-G*G*GGGACGATCGTCG*G* G*G*G*G*-3′) (SEQ ID NO:1) that were tagged with cyanine-3 (Cy3) fluorochrome. After an incubation for 4 h with Cy3-CpG-ODN sequences, neutrophils were extensively washed with phosphate buffer and Cy3 expression (corresponding to the degree in CpG-ODN binding on human neutrophils) was assessed by flow cytometry. […]. […]

[6] = test system: Influenza A/PR/8/34 H1N1 (IAV); test: IAV-infected mice: lung viral load, IL-6 and histology; type: in vivo; conditions: 50 pfu IAV intranasally; iv. daily for three days, LTB4 1 μg/kg, NacMDP 2 mg/kg; four days post-infection (FIG. 40)
Experimental: In FIG. 39, MEFs were generated and plated as described in Example VII. Cells were infected with IAV (0.1 m.o.i.) alone (−), LTB4 alone (100 nM) or with a combination of LTB4 and NacMDP (0.1 μg/ml) for 24 hours. Following infection, cell culture supernatants were harvested and assayed for viral load determination by standard plaque assay in MDCK cells. For in vivo assessment of the antiviral activity of LTB4 and NacMDP, 4-6 weeks old C57131/6 female mice (n=4/group) were infected intranasally (in.) with 50 plaque-forming units (pfu) of IAV (FIG. 40). Starting at day one post-infection, mice were treated daily for three days with either saline, LTB4 alone (1 μg/kg) or with a combination of LTB4 and NacMDP (2 mg/kg), via the intravenous (iv.) route. Four days post-infection, animals were sacrificed and viral loads were determined from triturated lungs by standard plaque assay in MDCK cells. […] In FIG. 39, * p≦0.05. […]
To further investigate the in vivo consequences associated with the treatment of IAV-infected mice with a combination of LTB4 and the NOD2 agonist NacMDP, 4-6 weeks old C57131/6 female mice (n=4/group) were infected as described in Example IX and treated with either saline or a combination of LTB4 and NacMDP also as described. In FIG. 41, four-day infected animals were sacrificed and IL-6 titers were determined from triturated lungs by ELISA. […]

[7] = test system: Influenza A/PR/8/34 H1N1 (IAV); type: cell-based; conditions: MEF, IAV 0.1 m.o.i., 24 hours, LTB4 100 nM, NacMDP 0.1 μg/ml (FIG. 39)
IPS-1 = test: IPS-1-dependent promoter activation assay (luciferase) in BLT1-expressing HEK-293T cells; type: cell-based; conditions: IPS-1-expressing vector
human neutrophils [8] = test: TLR9 protein expression by human neutrophils (flow cytometry); type: cell-based
Experimental: as §1

Structure (SMILES)	expression of TLR2 mRNA (human neutrophils [1]; RT-PCR (FIG. 1))	mRNA expression of TLR7-9 (human neutrophils [1]; RT-PCR (FIG. 3))	TLR2 expression (protein) (human neutrophils [2])	secretion of IFNβ [3]	IL-6 secretion (IAV-infected MEF)	IL-6 secretion [4]	NF-κB promoter activity (luciferase) (RIG-I; LTB4 stimulation 24 h (FIG. 28))	IFN-β promoter activity (luciferase) (RIG-I; LTB4 stimulation 24 h (FIG. 29))	CpG-ODN binding on human neutrophils (Cy3 expression) (human neutrophils [5])	viral load in lungs (in vivo) [6]	viral load (in vitro) [7]	NF-κB promoter activity (luciferase) (IPS-1; LTB4 stimulation 24 h (FIG. 30))	IFN-β promoter activity (luciferase) (IPS-1; LTB4 stimulation 24 h (FIG. 31))	TLR9 expression compared to LTC4, LTD4, C5a and IL-8 (human neutrophils [8]; 60 min stimulation (FIG. 4C-D))	TLR9 expression (protein) (human neutrophils [8]; LTB4 100 nM, 15, 30, 60 or 120 min, with or without BLT1 antagonist U75302 10 μM (FIG. 4A-B))
CCCCC/C=C\C[C@@H](O)/C=C/C=C/C=C\[C@@H](O)CCCC(=O)O [LTB4, 5S,12R-6,8,10,14(Z,E,E,Z)-eicosatetraenoic acid]	stimulated by LTB4 in a dose-dependent form	stimulated in a dose-dependent form	enhanced TLR2 expression; also recorded: upregulated TLR2 and TLR9 protein expression	induces secretion of IFNβ	significantly enhance IL-6 secretion	do not induce significant IL-6 secretion compared to background	enhances NF-κB as well as IFN-β promoter activity	enhances NF-κB as well as IFN-β promoter activity	enhances CpG-ODN binding on human neutrophils in a TLR9-dependent manner	significant decrease in viral load	significant decrease in viral load	induces NF-κB as well as IFN-β promoter activity	induces NF-κB as well as IFN-β promoter activity	potent inducer of TLR9 expression	induces TLR9 expression on human neutrophils in a time-dependent manner; also recorded: upregulated TLR2 and TLR9 protein expression
CC(=O)N[C@H]1C(O)O[C@H](CO)[C@@H](O)[C@@H]1O[C@H](C)C(=O)N[C@@H](C)C(=O)N[C@H](CCC(=O)O)C(N)=O (some centres unmarked) [NacMDP, N-acetyl muramyl dipeptide, reference compound]	–	–	–	–	significantly enhance IL-6 secretion	do not induce significant IL-6 secretion compared to background	–	–	–	–	–	–	–	–	–
